# US9422308B2, “Derivatives of docosahexaenoylethanolamide and uses thereof” (The United States of America, as represented by the …, priority 2012, dated 2016)
# System: neural stem cells
# Assay: neuronal and glial differentiation of neural stem cells (MAP2/GFAP immunofluorescence)
# Format: cell-based, rats
# Details: 7 days, differentiating NSCs
# Procedure: Fetal neural stem cell culture: Neural stern cells (NSCs) were cultured by the neurosphere method (Rietze R. L., Reynolds B. A. (2006) Neural stem cell isolation and characterization. Methods Enzymol. 419, 3-23, the method incorporated by reference herein) with slight modification. Forebrain cortices of rats were isolated on embryonic day 14.5 and 12.5, respectively. The cortices were mechanically disrupted into single cells by repeated pipetting in a serum-free conditioned medium (N2 medium) containing DMEM/F12 (1:1), 0.6% (wt/vol) glucose, 0.1125% (wt/vol) sodium bicarbonate, 2 mM L-glutamine, 5 mM HEPES, 100 μg/mL human apo-transferrin, 20 nM progesterone, 30 nM sodium selenite, 60 μM putrescine, and 25 μg/mL insulin. The dissociated cells were cultured in 6 cm dishes at a density of 1×10^5 cells/mL in N2 medium with 20 ng/mL bFGF and 2 μg/mL heparin in a humidified 5% CO2/95% air incubator at 37° C. Within 3-4 days, the cells grew as free-floating neurospheres that were then collected by centrifugation, mechanically dissociated by pipetting, and passaged.
# Differentiation of NSCs: After the second passage, nestin- and SOX2-positive NSCs were enriched in the neurosphere with minimal presence of differentiated cells (MAP2, Tuj-1 and GFAP-positive cells). After the second passage neurospheres were mechanically dissociated and 5×10^5 cells/mL were plated onto 15 μg/mL poly-L-ornithine coated 6- or 24-well plates in N2 medium without bFGF and heparin to initiate the differentiation. The cultures were then treated with N2 medium containing A8 in the presence of 40 μM vitamin E for 1-7 days. As the vehicle control, N2 medium containing 40 μM vitamin E was used.
# Immunofluorescence staining: For immunofluorescence staining, 2.5×10^5 NSCs were cultured in 0.5 mL media. […] Finally, the cells were mounted with 80% (vol/vol) glycerol, visualized under a fluorescence microscope and the image data were processed using MetaMorph software for quantitative information. The number of MAP2- and GFAP-positive cells were counted from three separate wells with three to six random fields per well. […]
smiles,measurement,setting,value
"CC/C=C\C/C=C\C/C=C\C/C=C\C/C=C\C/C=C\CCC(=O)NCC(C)(C)O [Compound 1, (4Z,7Z,10Z,13Z,16Z,19Z)—N-(2-hydroxy-2-methylpropyl)docosa-4,7,10,13,16,19-hexaenamide]",MAP2 positive cells,"1 nM, control 7.0±0.8, p=0.02",10.8±1.8%
same,differentiation into GFAP positive cells,1-100 nM range,not affected
same,MAP2 positive cells (maximum effect),"around 10 nM, p=0.007",17.2±4.1%
